The structures appear in SMILES notation.

The test concerns the target T1, glucocorticoid receptor (Homo sapiens, UniProt P04150).
T1 construct: endogenous in cells; ATCC cat
T1 sequence (P04150 1-777): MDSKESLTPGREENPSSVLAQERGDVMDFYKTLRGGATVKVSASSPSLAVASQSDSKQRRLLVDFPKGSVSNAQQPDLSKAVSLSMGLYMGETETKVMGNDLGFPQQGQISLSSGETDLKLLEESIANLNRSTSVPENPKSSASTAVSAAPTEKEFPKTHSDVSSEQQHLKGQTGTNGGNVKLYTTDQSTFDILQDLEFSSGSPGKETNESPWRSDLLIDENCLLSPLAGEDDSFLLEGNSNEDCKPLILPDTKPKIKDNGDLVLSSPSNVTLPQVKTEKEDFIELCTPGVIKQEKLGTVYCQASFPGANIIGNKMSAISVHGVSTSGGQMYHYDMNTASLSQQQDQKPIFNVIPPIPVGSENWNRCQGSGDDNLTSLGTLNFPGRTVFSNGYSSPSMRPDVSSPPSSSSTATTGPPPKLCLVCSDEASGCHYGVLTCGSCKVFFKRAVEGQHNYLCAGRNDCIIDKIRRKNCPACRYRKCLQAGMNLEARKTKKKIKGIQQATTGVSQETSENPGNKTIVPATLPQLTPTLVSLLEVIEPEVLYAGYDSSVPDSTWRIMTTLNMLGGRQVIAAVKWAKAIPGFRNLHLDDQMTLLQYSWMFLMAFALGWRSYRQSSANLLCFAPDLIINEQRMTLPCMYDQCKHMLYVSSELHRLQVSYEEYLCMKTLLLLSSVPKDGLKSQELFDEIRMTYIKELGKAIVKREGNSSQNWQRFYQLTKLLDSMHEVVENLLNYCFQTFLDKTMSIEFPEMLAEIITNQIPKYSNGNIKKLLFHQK
Kind of test: Hep G2 TAT IC50: inhibition of dexamethasone-induced TAT in HepG2 cells (384 well). Format: cell-based. As for the experimental part:
Glucocorticoid mediated activation of TAT occurs by transactivation of glucocorticoid response elements in the TAT promoter by glucocorticoid receptor/agonist complex.
HepG2 cells were cultured using MEME media supplemented with 10% (v/v) foetal bovine serum, 2 mM L-glutamine, 1% (v/v) NEAA, and 1% (v/v) penstrep, at 37° C., 5%/95% (v/v) CO2/air.
Compounds were diluted from a 10 mM stock via an Echo Acoustic liquid handler into 10 μL assay media to generate a 10-point half-log dilution curve.
HepG2 cells were then lysed with 8 μL of cell lysis buffer containing a protease inhibitor cocktail for 15 minutes at 25° C. […] After a 2-hour incubation at 37° C. the reaction was terminated by the addition of 8 μL of 5 M aqueous potassium hydroxide solution, and the plates incubated for a further 30 minutes at 37° C.
[compound] and fitting the data to a 4-parameter logistic equation.
The compound `Cc1cnnc(-n2ncc3cc(C4CN(S(=O)(=O)c5cnn(C)n5)CCN4CCC(F)(F)F)c(C)cc32)c1` (stereo not drawn) [Example 204, 6-methyl-1-(5-methylpyridazin-3-yl)-5-(4-(2-methyltriazol-4-yl)sulfonyl-1-(3,3,3-trifluoropropyl)piperazin-2-yl)indazole] returned an IC50 of 3.85 µM. The value for `COc1ccc(-n2ncc3cc(C4CN(S(=O)(=O)c5cnn(C)n5)CCN4CCC(F)(F)F)c(C)cc32)cc1` (stereo not drawn) [Example 205, 1-(4-methoxyphenyl)-6-methyl-5-(4-(2-methyltriazol-4-yl)sulfonyl-1-(3,3,3-trifluoropropyl)piperazin-2-yl)indazole] was 2.88 µM. The compound `COc1ncc(-n2ncc3cc(C4CN(S(=O)(=O)c5cnn(C)n5)CCN4CCC(F)(F)F)c(C)cc32)cc1C` (stereo not drawn) [Example 206, 1-(6-methoxy-5-methyl-3-pyridyl)-6-methyl-5-(4-(2-methyltriazol-4-yl)sulfonyl-1-(3,3,3-trifluoropropyl)piperazin-2-yl)indazole] registered an IC50 of 6.12 µM. `Cc1cc2c(cnn2-c2cc(F)c(=O)n(C)c2)cc1C1CN(S(=O)(=O)c2cnn(C)n2)CCN1CCC(F)(F)F` (stereo not drawn) [Example 207, 3-fluoro-1-methyl-5-(6-methyl-5-(4-(2-methyltriazol-4-yl)sulfonyl-1-(3,3,3-trifluoropropyl)piperazin-2-yl)indazol-1-yl)pyridin-2-one] displayed an IC50 of 0.933 µM. For `CN(C)S(=O)(=O)N1CCN(CCC(F)(F)F)C(c2cc3cnn(-c4ccc(F)cc4)c3cc2Cl)C1` (stereo not drawn) [Example 209, 3-(6-chloro-1-(4-fluorophenyl)indazol-5-yl)-N,N-dimethyl-4-(3,3,3-trifluoropropyl)piperazine-1-sulfonamide] the value was 3.13 µM; for `O=S(=O)(N1CCOCC1)N1CCN(CCC(F)(F)F)C(c2cc3cnn(-c4ccc(F)cc4)c3cc2Cl)C1` (stereo not drawn) [Example 210, 4-(3-(6-chloro-1-(4-fluorophenyl)indazol-5-yl)-4-(3,3,3-trifluoropropyl)piperazin-1-yl)sulfonylmorpholine], 2.54 µM. The value for `Cc1cc(-n2ncc3cc(C4CN(S(=O)(=O)N5CCOCC5)CCN4CCC(F)(F)F)c(Cl)cc32)cn(C)c1=O` (stereo not drawn) [Example 211, 5-(6-chloro-5-(4-morpholinosulfonyl-1-(3,3,3-trifluoropropyl)piperazin-2-yl)indazol-1-yl)-1,3-dimethyl-pyridin-2-one] was 0.589 µM. For `COc1cc2c(cnn2-c2ccc(F)cc2)cc1C1CN(S(=O)(=O)N(C)C)CCN1CCC(F)(F)F` (stereo not drawn) [Example 212, 3-(1-(4-fluorophenyl)-6-methoxy-indazol-5-yl)-N,N-dimethyl-4-(3,3,3-trifluoropropyl)piperazine-1-sulfonamide], the IC50 turned out to be 1.44 µM.

Regarding `COc1cc2c(cnn2-c2ccc(F)cc2)cc1C1CN(S(=O)(=O)N(C)C)CCN1CC1CC(F)(F)C1` (stereo not drawn) [Example 213, 4-((3,3-difluorocyclobutyl)methyl)-3-(1-(4-fluorophenyl)-6-methoxy-indazol-5-yl)-N,N-dimethyl-piperazine-1-sulfonamide], the IC50 was found to be 2.24 µM.

The record behind these values is patent US12098144B2, “Piperazine indazole glucocorticoid receptor antagonists” (Corcept Therapeutics Incorporated, priority 2021, dated 2024).
